What was measured:
[1] = target: T1, peripheral receptors for benzodiazepines ([^3 H]-PK 11195) (Rattus norvegicus, UniProt P16257); assay: Displacement of [3H]-PK 11195, rat heart microsomal fractions; assay type: binding; details: corrected for DMSO, read-out: K0.5, peripheral receptors, [^3 H]--PK 11195;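 further: radioligand binding with bound label split from free by vacuum filtration, then quantified through liquid scintillation counting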
T1 construct: on microsomal fractions from rat heart; from tissue; host or cells: rat heart, microsomal fractions

[2] = target: T2, peripheral receptors for benzodiazepines ([^3 H]-R05-4864) (Rattus norvegicus, UniProt P16257); assay: Displacement of [3H]-R05-4864, rat heart microsomal fractions; assay type: binding; details: corrected for DMSO, read-out: K0.5, peripheral receptors, [^3 H]--RO 54864;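 further: Read-out is filter-retained bound radioligand, separated from free ligand by vacuum filtration over GF/C and counted by liquid scintillation, with compounds first dissolved in DMSO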
T2 construct: on microsomal fractions from rat heart; from tissue; host or cells: rat heart, microsomal fractions

[3] = target: central receptors for benzodiazepines; assay: Displacement of [3H]-RO 151788, rat central nervous system microsomal fractions; assay type: binding; details: corrected for DMSO, read-out: K0.5, central receptors, [^3 H]--RO 151788
[4] = system: porcine coronary; assay: Porcine coronary relaxation (PGF2α-precontracted coronary segments); design: species or system pig (Yucatan mini pig); details: for EC20 / EC50: Sus scrofa, porcine coronary segments, 37° C., PGF2α 4.10^-6 M, corrected for DMSO; for EC20: read-out: DE20, effect on coronary tension induced by PGF2α; for EC50: read-out: DE50, effect on coronary tension induced by PGF2α
Description: All the products studied were dissolved in DMSO at a concentration of 10^-2 M, then diluted to the desired concentrations in the experimental media. All of the ED20, ED50 and K0.5 values were corrected for the values obtained with DMSO under the same conditions of dilution.
Coronaries were taken on the heart of pigs (Yucatan mini pig), anesthetized under stresnil and pentobarbital. Proximal segments of the coronary were placed in an organ tank filled with Ringer solution at 37° C. The segments were tightened progressively to a base tension of around 6 g and contracted by the addition of PGF2α at a concentration of 4.10^-6 M. The potential of the products of the present invention to relax the coronary artery were then tested.
All of the compounds were tested for their capacity to relax the porcine coronary precontracted by PGF2α.

Structure (SMILES) | IC50 [1] | IC50 [2] | IC50 [3] | EC20 [4] | EC50 [4] | level of relaxation obtained as well as the 50% effect value (K0.5) obtained by displacement ([4]; overall judgement of relaxation and K0.5)
CCN(CC)C(=O)Cn1c(=O)n2cc(-c3cccc(Cl)c3)nc2c2ccccc21 [Example 19, 2-(m-chlorophenyl)-6-N,N-diethylaminocarbonylmethyl-5-oxo-5,6-dihydroimidazo[1,2-c]quinazoline] | 0.058 µM | 0.05 µM | > 100 µM | 23.6 µM | 2.36 µM | –
CCN(CC)C(=O)Cn1c(=O)n2cc(-c3ccco3)nc2c2ccccc21 [Example 21, 2-(2-furyl)-6-N,N-diethylaminocarbonylmethyl-5-oxo-5,6-dihydroimidazo[1,2-c]quinazoline] | 0.26 µM | 0.58 µM | > 100 µM | 3.89 µM | 1 µM | –
CCN(CC)C(=O)Cn1c(=O)n2cc(-c3ccsc3)nc2c2ccccc21 [Example 22, 2-(3-thienyl)-6-N,N-diethylaminocarbonylmethyl-5-oxo-5,6-dihydroimidazo[1,2-c]quinazoline] | 0.2 µM | 0.13 µM | > 100 µM | 3.51 µM | 0.73 µM | –
CC(C)CNC(=O)Cn1c(=O)n2cc(-c3ccccc3)nc2c2ccccc21 [Example 24, 2-phenyl-6-N-isobutylaminocarbonylmethyl-5-oxo-5,6-dihydroimidazo[1,2-c]quinazoline] | > 100 µM | > 100 µM | > 100 µM | 24.1 µM | 0.99 µM | –
CCN(CC)C(=O)CCCn1c(=O)n2cc(-c3ccccc3)nc2c2ccccc21 [Example 26, 2-phenyl-6-N,N-diethylaminocarbonylpropyl-5-oxo-5,6-dihydroimidazo[1,2-c]quinazoline] | 10 µM | 2.3 µM | 100 µM | 45.3 µM | 7.67 µM | –
CCOC(=O)CCCn1c(=O)n2cc(-c3ccccc3)nc2c2ccccc21 [Example 27, 2-phenyl-6-ethoxycarbonylpropyl-5-oxo-5,6-dihydroimidazo[1,2-c]quinazoline] | > 100 µM | 60 µM | 100 µM | > 100 µM | > 100 µM | –
CCCN(CCC)C(=O)Cn1c(=O)n2c(C)c(-c3cccc(Cl)c3)nc2c2ccccc21 [Example 32, 2-(m-chlorophenyl)-3-methyl-6-N,N-dipropylaminocarbonylmethyl-5-oxo-5,6-dihydroimidazo[1,2-c]quinazoline] | 0.0024 µM | 0.0031 µM | > 100 µM | – | – | particularly favorable
